From patent US20160361314A1, “COMBINATION OF AN ALK INHIBITOR AND A CDK INHIBITOR FOR THE TREATMENT OF CELL PROLIFERATIVE DISEASES” (NOVARTIS AG, priority 2013, published 2016) come the findings set out here.

In data set [1] the test system is SKNAS neuroblastoma cells (WT). The data set can be described thus: xCELLigence in vitro growth inhibition (IC50). The following applies: Homo sapiens, SK-N-AS, 72 hours, single agent. The format is cell-based.
Protocol: (§1) In vitro inhibitory activity was determined in five (5) neuroblastoma cell lines with a 96-well Real-Time Cell Electronic Sensing xCELLigence system (ACEA, San Diego, Calif.) which measures a “cell index”. Cell index is derived from alterations in electrical impedance as cells interact with the biocompatible microelectrode surface in each well to measure substrate adherent proliferation. Depending on the growth kinetics, the following cell densities were plated per well: NB1643: 20,000; SHSY5Y: 6,000; SKBE2C:10,000; NBEBC1: 11,000; NB1691: 30,000. After 24 hours, the plated cells were treated in triplicate with the test compound, each dose as indicated or with DMSO vehicle control. […] At 72 hours after drug exposure, the cell index was recorded.
(§2) The IC50 was calculated using GraphPad Prism 5.0 four parameter variable slope fitting.
For data set [2], the system named is SH-SY5Y (F1174L) human neuroblastoma cells. The data set can be described thus: Cell morphology and cell death by optical microscopy. The format is cell-based. The following applies: each compound at its IC50, 72 hours after treatment. An excerpt:
Synergistic anti-proliferative effect of the combination of our invention was visualized by optical microscopy. […] Seventy-two hours after treatment, the treated samples were compared to the untreated samples (vehicle) by optical microscopy and recorded in micrographs (FIGS. 10A to D).

Data set [3] concerns SKNFI neuroblastoma cells (WT). The experiment in a line: xCELLigence in vitro growth inhibition (IC50). The format is cell-based. The following applies: Homo sapiens, SK-N-FI, 72 hours, single agent.
Protocol: as §1, §2
For data set [4], the system named is NB-1643 human neuroblastoma cells. The data set can be described thus: Loewe additivity (CHALICE) synergy screen, CellTiter-Glo viability, 7x7 dose matrix. The format is cell-based. The following applies: NB-1643 (R1275Q), Table 2; for Max Combo Effect: in % (unit assumed). The protocol:
The synergistic interaction of drug combinations were assessed based on the Loewe Additivity Model using Chalice software [CombinatoRx, Cambridge Mass.]). […] 27:659-66. The software compares the response (% inhibition or % reduction of cell viability) of drug treatment from a combination of two agents to the response of the agents acting alone, against the drug-with-itself dose-additive reference model (the Loewe Additivity Model). Deviations from dose additives can be assessed numerically with a “synergy score” which quantifies the overall strength of combination effect. A synergy score >0 indicates a synergistic combination. In order to ensure only strongly synergistic combinations were selected, the acceptance criteria were set at a higher level. Strongly synergistic combinations were defined as having both a synergy score >2, a synergy score that is twice as large as the background (non-synergy) model would predict, and a maximum efficacy of >100, a value equivalent to stasis, as determined from the growth inhibition calculation.
After treatment, cell viabilty (quantity of viable cells) for each test mixtures were determined by the CellTiter-Glo® (CTG) luminescent cell viability assay (Promega) described in the Assay section, infra. […] The response to treatment (% reduction of cell viability) was analyzed using Chalice software [CombinatoRx, Cambridge Mass.]). Data evaluation and graph generation were performed using Microsoft Excel software and Chalice software.
The combinations were tested in duplicate using a 7×7 dose matrix block in 1536 well format with a cell proliferation readout as described in the Assay section infra.
All synergy calculations were performed using CHALICE software package from Zalicus and potential synergistic interactions between compound combinations were assessed using the Excess Inhibition 2D matrix according to the Loewe additivity model and were reported as synergy score (Table 10) (Lehar et al). Strongly synergistic combination were identified as having both (1) a synergy score greater than 2, a synergy score that is twice as large as the background (non-synergy) model would predict, and (2) a maximum efficacy of >100, a value roughly equivalent to stasis, as determined from the growth inhibition calculation.
Cell viability were determined by measuring cellular ATP content using the CellTiter-Glo® (CTG) luminescent cell viability assay (Promega). […] Reduced and enhanced luminescent signal values (responses) were calculated relative to untreated (control) cells, and the calculated signal value proportional to the cell viability.
Synergistic combinations were identified based on the Loewe Addivity Model. […]
(ATP-based viability assays read luminescence as a measure of living cells.)

Data set [5] relates to NBEBC1 neuroblastoma cells (WT). The data set can be described thus: xCELLigence in vitro growth inhibition and Chou-Talalay combination index. The format is cell-based. The following applies: Homo sapiens, Neuroblastoma cell, single agent.
Data set [6] concerns NB1691 neuroblastoma cells (WT). The data set is described as above. Type of data set: cell-based. The following applies: Homo sapiens.
Data set [7] deals with human neuroblastoma SH-SY5Y (F1174L ALK mutation) xenografts. The following applies: CB17 SCID mice; A1 50 mg/kg, B 250 mg/kg reduced to 187.5 mg/kg on day 5; p.o. gavage. The protocol: Enhancement of efficacy studies were conducted in vivo on CB17 SCID mice against human neuroblastoma SH-SY5Y (bearing an F1174L ALK mutation) xenografts.
CB17 scid female mice (Taconic Farms) were used to propagate subcutaneously implanted neuroblastoma tumors. Tumor diameters were measured twice per week with electronic calipers, and tumor volumes were calculated with the spheroid formula, (p/6)×d3, where d represents mean diameter. […] Mice were euthanized when tumor volume exceeded 3000 mm^3 or at the study conclusion at 7 weeks. A mixed-effects linear model was used to assess tumor volume over time between treatment and vehicle groups, controlling for tumor size at enrollment. Event-free survival probabilities were estimated using the Kaplan-Meier method and survival curves were compared using the log-rank test (SAS 9.3 and Stata 12.1). An event was defined as time to tumor volume ≧3000 mm^3, and tumor volumes after week 7 were censored. Mice were maintained under protocols and conditions approved by our institutional animal care and use committee.

Where [8] appears, read: read-out: Dm (median-effect dose).
The mark [9] stands for this setting: NB-1691, 72 hours, single agent, read-out: IC50.
Setting [10] is: NB-1691, single agent, read-out: Dm (median-effect dose).

Where two headings read alike, the source gives them in different places.

On to `Cc1cc(Nc2ncc(Cl)c(Nc3ccccc3S(=O)(=O)C(C)C)n2)c(OC(C)C)cc1C1CCNCC1` [Compound A1, 5-chloro-N2-(2-isopropoxy-5-methyl-4-(piperidin-4-yl)phenyl)-N4-[2-(propane-2-sulfonyl)-phenyl]-pyrimidine-2,4-diamine], for which the IC50 amounted to 2150 nM in data set [1]; 3480 nM in data set [3]; 1920 nM in data set [5] (72 hours, read-out: IC50); 1660 nM in data set [5] (setting [8]); 1930 nM in data set [6] (setting [9]); 762 nM in data set [6] (setting [10]). Moreover, the “Intact cells and cell morphology by micrograph” value in data set [2] is given as “significant reduction in the number of intact cells”. Moreover, the “Synergy score (Mean)” value in data set [4] came out at 1.231. Besides, the “Max Combo Effect” value in data set [4] came out at 151.1. Also, the “Survival of the mice / deaths” value in data set [7] was “euthanized due to the size of their tumor”. Moreover, the “Tumor volume / tumor growth” value in data set [7] was “only a slight tumor growth delay compared to vehicle control”.

On to `CN(C)C(=O)c1cc2cnc(Nc3ccc(N4CCNCC4)cn3)nc2n1C1CCCC1` [Compound B, 7-cyclopentyl-N,N-dimethyl-2-((5-(piperazin-1-yl)pyridin-2-yl)amino)-7H-pyrrolo[2,3-d]pyrimidine-6-carboxamide], for which the IC50 in data set [1] is 4720 nM; in data set [3] (unit in cell), > 6000 nM; in data set [5] (72 hours, read-out: IC50) it was 328 nM; in data set [5] (setting [8]), 1260 nM; in data set [6] (setting [9]) it was 315 nM; in data set [6] (setting [10]), 2650 nM. Also, in data set [2], the “Intact cells and cell morphology by micrograph” value was “minimal effect in cell numbers and cell morphology”. Also, the “Synergy score (Mean)” value in data set [4] is recorded as 0.929. Moreover, the “Max Combo Effect” value in data set [4] worked out at 76.4. The “Survival of the mice / deaths” value in data set [7] is “one of the mice died on day 14”. In data set [7], the “Tumor volume / tumor growth” value is listed as “slower tumor growth”.
